According to the NIST ThermoML archive (doi:10.1007/s10765-009-0665-4):

Legend:
[1] = 293.15 K; 101.33 kPa; Liquid; Sing-around technique in a fixed-path interferometer
[2] = xn = mol fraction of the nth substance listed; details: 293.15 K, 101 kPa, Liquid; for speed of sound: Sing-around technique in a fixed-path interferometer

CC(C)CO [2-methyl-1-propanol]
Details	speed of sound [m/s]
[1]	1204.1

CCCCO [butan-1-ol]
Details	speed of sound [m/s]
[1]	1256.3

C1CCCCC1 [cyclohexane]
Details	speed of sound [m/s]
[1]	1279

C1CCCCC1 [cyclohexane] + CCCCO
[2]
Details	mass density [kg/m3]	speed of sound [m/s]
x2 = 0.00115	778.6	1278.7
x2 = 0.00245	778.5	1277.7
x2 = 0.0124	778.5	1274.6
x2 = 0.0262	778.7	1271.5
x2 = 0.04084	778.8	1269.3
x2 = 0.07249	779.3	1265.3
x2 = 0.1395	780.4	1258.6
x2 = 0.1897	781.4	1254.6
x2 = 0.3017	784	1248.8
x2 = 0.5175	790.4	1244.4
x2 = 0.6162	793.7	1244.8
x2 = 0.7983	800.8	1248.2

CCCCCC [hexane]
Details	speed of sound [m/s]
[1]	1098.9

CCCCCC [hexane] + CCCCO
[2]
Details	mass density [kg/m3]	speed of sound [m/s]
x2 = 0.00305	659.9	1099
x2 = 0.04764	664.4	1099.2
x2 = 0.1026	670.3	1099.8
x2 = 0.1225	672.4	1100.5
x2 = 0.1509	675.6	1101.6
x2 = 0.2261	684.4	1105.9
x2 = 0.2979	693.4	1112.1
x2 = 0.4965	720.9	1140
x2 = 0.6128	738.8	1160.2
x2 = 0.6817	750.1	1174
x2 = 0.7658	764.5	1192.1
x2 = 0.8937	788.1	1224.5
